Our source for the IC50 and Ki values is ChEMBL document CHEMBL3784917, “Recent Progress in Histone Demethylase Inhibitors” (J Med Chem, 2016).

For one test, the system named is MDA-MB-231. In words: Antiproliferative activity against human MDA-MB-231 cells assessed as reduction in cell viability after 72 hrs by MTT assay. Format: functional, cell-based. The conditions noted are these: MDA-MB-231, 72 h. In general terms: Formazan colour is commonly taken as a measure of viable cells.
The target of test [1] is T1, Lysine-specific histone demethylase 1A (Homo sapiens, UniProt O60341).
The next test has as its system HeLa. In words: Antiproliferative activity against human HeLa cells assessed as reduction in cell viability after 72 hrs by MTT assay. In kind it is functional, cell-based.
The target of test [2] is T2, Lysine-specific demethylase 4A (Homo sapiens, UniProt O75164).
T2 sequence (O75164 whole entry): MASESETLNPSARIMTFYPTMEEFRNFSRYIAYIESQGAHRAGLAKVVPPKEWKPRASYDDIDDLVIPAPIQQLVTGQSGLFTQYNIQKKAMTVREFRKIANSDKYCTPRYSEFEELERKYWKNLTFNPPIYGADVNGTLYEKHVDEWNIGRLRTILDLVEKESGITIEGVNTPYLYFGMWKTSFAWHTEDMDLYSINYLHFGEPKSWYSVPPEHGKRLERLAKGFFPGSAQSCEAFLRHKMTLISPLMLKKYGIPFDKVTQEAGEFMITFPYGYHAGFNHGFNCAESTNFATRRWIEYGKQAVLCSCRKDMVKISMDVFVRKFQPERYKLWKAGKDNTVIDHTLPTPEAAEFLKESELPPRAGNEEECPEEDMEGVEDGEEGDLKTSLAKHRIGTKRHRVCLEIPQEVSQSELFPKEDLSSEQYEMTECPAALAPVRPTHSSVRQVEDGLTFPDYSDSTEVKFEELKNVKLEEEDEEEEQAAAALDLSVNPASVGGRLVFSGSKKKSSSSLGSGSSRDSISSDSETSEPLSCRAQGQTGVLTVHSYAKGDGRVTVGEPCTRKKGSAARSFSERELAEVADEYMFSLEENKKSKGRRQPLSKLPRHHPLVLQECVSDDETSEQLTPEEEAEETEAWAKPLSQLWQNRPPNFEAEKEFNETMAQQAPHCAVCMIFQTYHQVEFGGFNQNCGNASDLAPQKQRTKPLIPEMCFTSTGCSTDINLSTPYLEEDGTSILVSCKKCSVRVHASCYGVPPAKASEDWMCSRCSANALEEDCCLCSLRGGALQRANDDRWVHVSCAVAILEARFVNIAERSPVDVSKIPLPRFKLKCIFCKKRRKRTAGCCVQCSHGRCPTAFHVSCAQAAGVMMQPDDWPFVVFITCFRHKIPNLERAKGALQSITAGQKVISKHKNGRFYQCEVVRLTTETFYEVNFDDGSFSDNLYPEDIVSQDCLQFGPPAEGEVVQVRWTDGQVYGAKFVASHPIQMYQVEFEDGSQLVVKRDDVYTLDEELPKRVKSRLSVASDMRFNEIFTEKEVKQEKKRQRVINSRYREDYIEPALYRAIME

Test [3] deals with T3, Lysine-specific demethylase 5A (Homo sapiens, UniProt P29375). The arrangement: species or system Sf9.
T3 sequence (P29375 whole entry): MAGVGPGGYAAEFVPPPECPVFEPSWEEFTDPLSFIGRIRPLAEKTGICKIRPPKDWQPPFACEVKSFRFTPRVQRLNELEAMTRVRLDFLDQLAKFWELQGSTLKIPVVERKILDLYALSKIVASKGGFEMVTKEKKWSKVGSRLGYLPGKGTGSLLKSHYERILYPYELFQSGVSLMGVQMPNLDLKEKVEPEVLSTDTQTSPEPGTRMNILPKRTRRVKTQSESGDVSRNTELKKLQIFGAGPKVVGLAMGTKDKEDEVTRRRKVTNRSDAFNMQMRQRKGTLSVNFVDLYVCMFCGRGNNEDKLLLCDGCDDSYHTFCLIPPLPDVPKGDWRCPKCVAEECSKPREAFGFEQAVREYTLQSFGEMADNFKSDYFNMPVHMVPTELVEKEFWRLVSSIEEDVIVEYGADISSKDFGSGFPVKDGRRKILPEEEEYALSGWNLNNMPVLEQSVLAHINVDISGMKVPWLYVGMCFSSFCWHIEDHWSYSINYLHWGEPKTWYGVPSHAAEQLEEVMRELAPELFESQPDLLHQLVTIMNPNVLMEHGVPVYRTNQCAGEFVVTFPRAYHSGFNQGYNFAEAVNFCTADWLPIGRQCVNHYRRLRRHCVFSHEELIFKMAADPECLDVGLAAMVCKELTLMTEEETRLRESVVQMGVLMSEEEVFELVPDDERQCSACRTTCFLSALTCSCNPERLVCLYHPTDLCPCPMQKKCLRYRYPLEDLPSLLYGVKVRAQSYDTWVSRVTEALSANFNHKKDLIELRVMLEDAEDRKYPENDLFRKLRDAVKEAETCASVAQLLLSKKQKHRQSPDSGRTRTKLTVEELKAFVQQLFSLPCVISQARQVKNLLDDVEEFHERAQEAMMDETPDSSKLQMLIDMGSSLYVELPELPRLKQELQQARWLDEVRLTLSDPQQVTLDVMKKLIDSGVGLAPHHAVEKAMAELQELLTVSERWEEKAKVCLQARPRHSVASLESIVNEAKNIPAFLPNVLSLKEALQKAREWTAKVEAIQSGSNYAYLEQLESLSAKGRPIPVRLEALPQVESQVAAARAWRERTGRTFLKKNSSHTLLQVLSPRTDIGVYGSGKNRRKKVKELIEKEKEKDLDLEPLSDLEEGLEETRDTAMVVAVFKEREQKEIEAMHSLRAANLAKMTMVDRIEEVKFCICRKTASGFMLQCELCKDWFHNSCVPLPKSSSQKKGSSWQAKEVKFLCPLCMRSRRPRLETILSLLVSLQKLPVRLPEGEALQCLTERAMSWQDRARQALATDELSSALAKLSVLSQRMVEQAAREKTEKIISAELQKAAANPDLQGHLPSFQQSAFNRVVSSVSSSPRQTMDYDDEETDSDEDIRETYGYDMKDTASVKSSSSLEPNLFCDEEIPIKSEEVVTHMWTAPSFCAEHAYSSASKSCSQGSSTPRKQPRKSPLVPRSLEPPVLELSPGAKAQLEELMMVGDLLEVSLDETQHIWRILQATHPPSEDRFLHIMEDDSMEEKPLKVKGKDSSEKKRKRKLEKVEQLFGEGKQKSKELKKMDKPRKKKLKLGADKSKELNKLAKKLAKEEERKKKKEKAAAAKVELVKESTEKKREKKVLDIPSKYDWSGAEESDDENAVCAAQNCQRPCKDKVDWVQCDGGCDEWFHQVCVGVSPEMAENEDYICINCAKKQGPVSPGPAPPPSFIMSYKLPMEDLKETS
For test [4], the target named is T2, Lysine-specific demethylase 4A. This is another data set of the same source.
Test [5] has the same target. The source holds these as a separate data set.
Test [6] has as its target Lysine-specific demethylase 6B (Homo sapiens, UniProt O15054). In words: Inhibition of human C-terminal FLAG-tagged KDM6B (1043 residues) expressed in baculovirus infected sf9 cells using H3K27me3 (21 to 44 residues) substrate preincubated for 10 mins followed by substrate addition measured after 45 mins by TR-FRET assay.
For test [7], the target named is T4, Amine oxidase [flavin-containing] B (Homo sapiens, UniProt P27338).
T4 sequence (P27338 whole entry): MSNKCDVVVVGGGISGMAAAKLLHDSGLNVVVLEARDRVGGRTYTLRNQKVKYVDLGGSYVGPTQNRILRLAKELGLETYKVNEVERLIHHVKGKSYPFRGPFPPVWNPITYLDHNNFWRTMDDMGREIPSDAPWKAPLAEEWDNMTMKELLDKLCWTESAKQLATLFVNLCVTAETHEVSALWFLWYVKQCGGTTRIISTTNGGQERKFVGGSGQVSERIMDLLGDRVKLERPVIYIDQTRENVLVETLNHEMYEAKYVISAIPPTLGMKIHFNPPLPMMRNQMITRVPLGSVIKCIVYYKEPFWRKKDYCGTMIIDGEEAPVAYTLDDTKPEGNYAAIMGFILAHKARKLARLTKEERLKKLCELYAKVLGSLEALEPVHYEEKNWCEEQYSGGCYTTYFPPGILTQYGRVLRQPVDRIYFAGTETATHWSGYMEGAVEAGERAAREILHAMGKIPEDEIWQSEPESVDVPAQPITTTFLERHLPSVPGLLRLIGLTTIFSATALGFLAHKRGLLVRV
Kind of test: Inhibition of human recombinant MAO-B using 3-(2-Aminophenyl)-3-oxopropanamine as substrate preincubated for 15 mins followed by substrate addition measured after 1 hr by fluorescence microplate reader analysis.

The target of test [8] is T5, Amine oxidase [flavin-containing] A (Homo sapiens, UniProt P21397).
T5 sequence (P21397 whole entry): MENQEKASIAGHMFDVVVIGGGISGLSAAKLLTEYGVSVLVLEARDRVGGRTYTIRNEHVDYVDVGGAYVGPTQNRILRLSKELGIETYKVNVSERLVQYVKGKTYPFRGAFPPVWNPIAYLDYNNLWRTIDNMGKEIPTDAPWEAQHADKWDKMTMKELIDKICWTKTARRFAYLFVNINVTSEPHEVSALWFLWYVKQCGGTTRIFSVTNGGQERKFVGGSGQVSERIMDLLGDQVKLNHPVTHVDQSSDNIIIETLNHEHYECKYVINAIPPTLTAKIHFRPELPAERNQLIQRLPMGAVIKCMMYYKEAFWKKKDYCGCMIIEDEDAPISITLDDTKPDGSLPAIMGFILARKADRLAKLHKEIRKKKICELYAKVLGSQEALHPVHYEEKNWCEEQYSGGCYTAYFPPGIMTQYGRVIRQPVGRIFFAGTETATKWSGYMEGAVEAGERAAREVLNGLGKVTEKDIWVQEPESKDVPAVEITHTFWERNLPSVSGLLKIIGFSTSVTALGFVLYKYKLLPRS
Kind of test: Inhibition of human recombinant MAO-A using 3-(2-Aminophenyl)-3-oxopropanamine as substrate preincubated for 15 mins followed by substrate addition measured after 1 hr by fluorescence microplate reader analysis.

Test [9] deals with T1, Lysine-specific histone demethylase 1A. In words: Inhibition of recombinant human N-terminal GST-tagged KDM1A expressed in Escherichia coli using H3K4me2 as substrate preincubated for 15 mins followed by substrate addition measured after 1 hr by peroxidase coupled enzyme assay.
Test [10] deals with T6, Lysine-specific demethylase 4B (Homo sapiens, UniProt O94953).
T6 sequence (O94953 whole entry): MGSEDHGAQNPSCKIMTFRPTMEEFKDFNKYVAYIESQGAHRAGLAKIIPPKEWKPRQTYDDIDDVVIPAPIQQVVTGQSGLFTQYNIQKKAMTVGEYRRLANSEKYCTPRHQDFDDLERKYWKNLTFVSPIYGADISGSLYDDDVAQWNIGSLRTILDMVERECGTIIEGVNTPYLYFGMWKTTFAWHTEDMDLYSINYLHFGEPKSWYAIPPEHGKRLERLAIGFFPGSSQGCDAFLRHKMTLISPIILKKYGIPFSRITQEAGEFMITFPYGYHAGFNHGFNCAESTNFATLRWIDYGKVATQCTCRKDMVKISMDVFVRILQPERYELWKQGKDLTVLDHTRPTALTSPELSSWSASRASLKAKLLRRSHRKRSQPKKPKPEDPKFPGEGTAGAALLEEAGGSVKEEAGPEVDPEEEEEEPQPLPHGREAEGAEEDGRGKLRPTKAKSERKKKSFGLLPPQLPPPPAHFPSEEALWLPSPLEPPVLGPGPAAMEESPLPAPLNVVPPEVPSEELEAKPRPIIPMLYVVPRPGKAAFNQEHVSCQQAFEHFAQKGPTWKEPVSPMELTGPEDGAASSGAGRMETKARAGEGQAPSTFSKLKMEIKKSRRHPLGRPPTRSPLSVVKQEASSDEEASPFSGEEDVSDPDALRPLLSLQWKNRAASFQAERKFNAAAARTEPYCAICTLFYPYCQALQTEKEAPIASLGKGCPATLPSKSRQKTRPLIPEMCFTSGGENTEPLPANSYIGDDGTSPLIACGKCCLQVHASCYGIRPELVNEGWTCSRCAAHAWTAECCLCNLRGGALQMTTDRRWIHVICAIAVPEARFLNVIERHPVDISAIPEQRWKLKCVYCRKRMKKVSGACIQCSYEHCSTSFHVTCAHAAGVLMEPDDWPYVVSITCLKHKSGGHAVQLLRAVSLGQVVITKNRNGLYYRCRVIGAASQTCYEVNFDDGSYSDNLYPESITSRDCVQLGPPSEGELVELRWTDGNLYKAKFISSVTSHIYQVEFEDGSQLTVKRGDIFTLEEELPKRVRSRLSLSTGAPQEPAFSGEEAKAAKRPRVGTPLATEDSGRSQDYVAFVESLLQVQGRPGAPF
In words: biochemical.

Test [11] can be described thus: Antiproliferative activity against human VCaP cells assessed as reduction in cell viability by MTT assay. In kind it is functional, cell-based.
Test [12] can be described thus: Antiproliferative activity against human PC3 cells assessed as reduction in cell viability by MTT assay. In kind it is functional, cell-based. The conditions noted are these: PC-3.
Test [13] deals with T2, Lysine-specific demethylase 4A. This is another data set of the same source.
The target of test [14] is T7, Lysine-specific demethylase 4C (Homo sapiens, UniProt Q9H3R0).
T7 sequence (Q9H3R0 whole entry): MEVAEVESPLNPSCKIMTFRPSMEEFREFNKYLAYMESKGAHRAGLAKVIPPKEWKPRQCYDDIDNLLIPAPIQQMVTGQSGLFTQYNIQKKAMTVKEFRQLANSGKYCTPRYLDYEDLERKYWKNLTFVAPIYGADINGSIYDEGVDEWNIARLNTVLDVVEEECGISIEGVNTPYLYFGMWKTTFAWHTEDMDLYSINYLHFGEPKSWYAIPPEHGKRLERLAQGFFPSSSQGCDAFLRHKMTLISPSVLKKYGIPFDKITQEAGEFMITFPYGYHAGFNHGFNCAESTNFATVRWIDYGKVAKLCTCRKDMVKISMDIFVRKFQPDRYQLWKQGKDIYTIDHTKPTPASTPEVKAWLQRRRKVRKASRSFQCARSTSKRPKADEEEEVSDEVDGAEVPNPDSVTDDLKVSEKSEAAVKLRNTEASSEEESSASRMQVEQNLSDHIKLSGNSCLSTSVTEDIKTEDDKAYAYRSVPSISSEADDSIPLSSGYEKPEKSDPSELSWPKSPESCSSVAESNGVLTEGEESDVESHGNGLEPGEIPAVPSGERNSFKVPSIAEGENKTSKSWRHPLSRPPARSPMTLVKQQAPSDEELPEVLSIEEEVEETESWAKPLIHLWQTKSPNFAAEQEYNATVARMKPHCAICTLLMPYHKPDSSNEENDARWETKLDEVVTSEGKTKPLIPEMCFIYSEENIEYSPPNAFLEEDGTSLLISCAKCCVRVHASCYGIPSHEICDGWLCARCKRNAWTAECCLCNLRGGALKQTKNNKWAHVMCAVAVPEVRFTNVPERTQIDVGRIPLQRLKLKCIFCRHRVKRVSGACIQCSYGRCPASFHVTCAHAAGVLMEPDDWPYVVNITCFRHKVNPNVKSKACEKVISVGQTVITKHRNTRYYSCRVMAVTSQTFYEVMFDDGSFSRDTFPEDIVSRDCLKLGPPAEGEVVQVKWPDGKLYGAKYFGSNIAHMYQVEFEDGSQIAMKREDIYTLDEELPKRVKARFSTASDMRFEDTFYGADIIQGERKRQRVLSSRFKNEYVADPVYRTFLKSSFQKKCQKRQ
In words: Inhibition of KDM4C (1 to 350 residues) (unknown origin) expressed in Escherichia coli using […] as substrate.

The subject of another test is LNCaP. Kind of test: Antiproliferative activity against human LNCAP cells assessed as reduction in cell viability by MTT assay. In kind it is functional, cell-based.
Test [15] addresses T3, Lysine-specific demethylase 5A.
Test [16] deals with T1, Lysine-specific histone demethylase 1A. Kind of test: Inhibition of full length human KDM1A expressed in Escherichia coli using biotin-H3K4me1 as substrate incubated for 1 hr by TR-FRET assay. A general note: Time-resolved FRET reads energy transfer from a long-lived donor to a nearby acceptor.
The target is the same in test [17]. Kind of test: Inhibition of KDM1A in human THP1 cells assessed as inhibition of CD11b expressing cells incubated for 4 days by DAPI staining based flow cytometry. In kind it is cell-based, THP-1. A general note: A flow cytometer gives signals particle by particle.
The target of test [18] is T5, Amine oxidase [flavin-containing] A. In words: Inhibition of human recombinant MAO-A expressed in Pichia pastoris preincubated for 15 mins followed by substrate addition measured after 30 mins by MAO-Glo assay.
In test [19] the target is T4, Amine oxidase [flavin-containing] B. Kind of test: Inhibition of human recombinant MAO-B expressed in Pichia pastoris preincubated for 15 mins followed by substrate addition measured after 30 mins by MAO-Glo assay.
The target in test [20] is T1, Lysine-specific histone demethylase 1A. In words: Inhibition of human recombinant KDM1A expressed in Escherichia coli using H3K4me peptide substrate preincubated for 15 mins followed substrate addition measured after 12 mins by peroxidase coupled enzyme assay.

Chain of Lysine-specific demethylase 6B (O15054 whole entry, the tested form may be a part): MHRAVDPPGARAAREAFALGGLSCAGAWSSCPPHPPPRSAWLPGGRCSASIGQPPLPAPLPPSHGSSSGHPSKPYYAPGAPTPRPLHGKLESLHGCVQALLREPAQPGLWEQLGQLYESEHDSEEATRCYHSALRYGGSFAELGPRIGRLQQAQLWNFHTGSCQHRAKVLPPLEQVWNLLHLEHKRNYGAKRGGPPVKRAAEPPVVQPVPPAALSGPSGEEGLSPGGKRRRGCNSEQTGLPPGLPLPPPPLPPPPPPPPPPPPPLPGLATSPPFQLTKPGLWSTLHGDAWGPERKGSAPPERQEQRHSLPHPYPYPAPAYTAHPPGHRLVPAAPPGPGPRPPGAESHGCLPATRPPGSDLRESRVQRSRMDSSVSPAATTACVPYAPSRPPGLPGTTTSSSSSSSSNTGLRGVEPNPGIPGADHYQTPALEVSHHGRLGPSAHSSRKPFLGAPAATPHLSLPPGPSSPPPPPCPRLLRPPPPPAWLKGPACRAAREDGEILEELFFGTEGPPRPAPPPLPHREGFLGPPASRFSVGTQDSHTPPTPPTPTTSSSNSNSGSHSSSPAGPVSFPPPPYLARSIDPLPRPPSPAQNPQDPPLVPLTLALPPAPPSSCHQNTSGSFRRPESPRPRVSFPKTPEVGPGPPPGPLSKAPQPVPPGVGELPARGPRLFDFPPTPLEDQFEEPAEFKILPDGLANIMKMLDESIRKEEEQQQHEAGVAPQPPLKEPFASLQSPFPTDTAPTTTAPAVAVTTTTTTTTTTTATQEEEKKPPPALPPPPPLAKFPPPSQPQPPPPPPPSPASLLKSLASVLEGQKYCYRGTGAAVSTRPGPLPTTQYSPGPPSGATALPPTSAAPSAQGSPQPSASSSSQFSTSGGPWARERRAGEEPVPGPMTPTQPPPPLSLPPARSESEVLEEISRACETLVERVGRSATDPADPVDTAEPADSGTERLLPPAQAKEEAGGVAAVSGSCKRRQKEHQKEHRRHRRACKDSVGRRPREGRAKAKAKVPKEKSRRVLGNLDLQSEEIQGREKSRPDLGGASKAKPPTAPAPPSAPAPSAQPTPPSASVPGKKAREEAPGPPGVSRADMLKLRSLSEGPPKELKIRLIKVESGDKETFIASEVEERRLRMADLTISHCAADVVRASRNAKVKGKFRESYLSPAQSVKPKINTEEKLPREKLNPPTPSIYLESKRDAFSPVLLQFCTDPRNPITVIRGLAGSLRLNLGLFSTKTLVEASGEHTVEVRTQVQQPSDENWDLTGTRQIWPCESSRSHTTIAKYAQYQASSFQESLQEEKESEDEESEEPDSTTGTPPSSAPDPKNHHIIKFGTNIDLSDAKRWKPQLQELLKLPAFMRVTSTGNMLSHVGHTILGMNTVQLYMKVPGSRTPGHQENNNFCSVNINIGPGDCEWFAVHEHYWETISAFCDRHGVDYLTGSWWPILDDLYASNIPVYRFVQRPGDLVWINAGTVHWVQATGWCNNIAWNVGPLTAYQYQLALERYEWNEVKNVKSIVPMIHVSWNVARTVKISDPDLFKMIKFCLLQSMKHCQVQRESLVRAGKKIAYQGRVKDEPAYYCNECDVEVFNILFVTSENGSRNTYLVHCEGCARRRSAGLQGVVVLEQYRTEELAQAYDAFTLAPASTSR

`CSCCc1nc(-c2cc(N)ccc2Cl)oc1C`: the half-maximal inhibitory concentration (IC50) (usually the point on the concentration scale where inhibition reaches its midpoint) is 1.2 nM in the test on MDA-MB-231, 10100 nM in test [1] and 1.2 nM in the test on HeLa.
Take `NNC(=O)Cc1nnn[nH]1`: the IC50 in [2] was 46600 nM; in test [3], 10400 nM; in [4] it was 2400 nM; in [6], 98000 nM. For the same compound, in test [5], the affinity, expressed as Ki, was 1940 nM.
In the case of `CC(C)S(=O)(=O)Nc1cccc(-c2ccc([C@H]3C[C@@H]3N)cc2)c1`, the IC50 was > 10000 nM in test [7], > 1000 nM in test [8] and 70 nM in test [9].
Turning to `O=C(NCCCc1ccccc1)c1cccc(-c2cc(O)c3ncccc3c2)c1`, the concentration for half-maximal inhibition (IC50) in test [10] is 10 nM; in test [11] it was < 1000 nM; in test [12], 40 nM; in test [13], < 1000 nM; in test [14], < 1000 nM; in the test on LNCaP, < 1000 nM. For the same compound, the IC50 in test [15] was > 10000 nM.
Turning to `Cc1ccc(-c2cnc(NC[C@H]3CCNC3)nc2-c2ccc(C#N)cc2)cc1`, the 50% inhibitory concentration (IC50) in test [16] and in [17] was < 10 nM each time.
`CN1CCN(c2ccc(C(=O)Nc3ccc([C@@H]4C[C@]4(N)CCc4ccccc4)cc3)cc2)CC1` (racemic): the half-maximal inhibitory concentration (IC50) in [18] was > 10000 nM; in [19] it was > 10000 nM; in test [20], < 100 nM.
